Tested on: Ventricular Cells in the Area Adjacent to Infarction
Test: Suppression of hypertrophy of ventricular cells in the area adjacent to infarction (coronary artery ligation)
Assay type: in vivo, Wistar rats
Settings: rats, 4 weeks administration after coronary ligation; pravastatin 5 mg/kg/day, CS-866 2 mg/kg/day; normal 2,737, control 3,812

Structure (SMILES): CC[C@H](C)C(=O)O[C@H]1C[C@H](O)C=C2C=C[C@H](C)[C@H](CC[C@@H](O)C[C@@H](O)CC(=O)O)[C@H]21 [pravastatin, (+)-(3R,5R)-3,5-dihydroxy-7-[(1S,2S,6S,8S,8aR)-6-hydroxy-2-methyl-8-[(S)-2-methylbutyryloxy]-1,2,6,7,8,8a-hexahydro-1-naphthyl]heptanoic acid]
- Mass of cardiac muscle cells in adjacent area to the infarction: 3,053 μm^2

Reference: patent US20050059720A1, “Medicinal compositions for the prevention or treatment of cardiac failure” (SANKYO COMPANY, LIMITED, priority 2000, published 2005)
